Data from patent US9072742B2, “Method of predicting a predisposition to QT prolongation” (Vanda Pharmaceuticals, Inc., priority 2009, dated 2015).
Where “and” joins values, the source holds several entries; their conditions need not be identical. Identical values can stand only once.

Test system: individuals genotyped at the rs1083338 locus (BAI3 gene)
Assay: QT prolongation (change in QTc, Fridericia) after oral iloperidone for two weeks, by rs1083338 genotype
Format: in vivo, human
Conditions: for Odds Ratio: GG vs non-GG at rs1083338, iloperidone 24 mg/day; for High QT +test (number of individuals) / Low QT +test (number of individuals) / High QT −test (number of individuals) / Low QT −test (number of individuals): iloperidone 24 mg/day B.I.D. oral; for High QT +test (number of individuals) / Low QT +test (number of individuals): GG genotype at rs1083338; for High QT −test (number of individuals) / Low QT −test (number of individuals): genotype other than GG at rs1083338
Protocol: Since the QT interval changes with changes in heart rate, the QT interval is often measured as a corrected QT (QTc) interval. Any number of formulas may be employed to calculate the QTc, including, for example, the Fridericia formula (QTcF), the Bazett formula (QTcB), and the Rautaharju formula (QTp), among others. In the studies described herein, QT was calculated using the Fridericia formula. However, the present invention includes the use of any such formula or method for calculating a QTc or an uncorrected QT. Using the genotypes at the SNP loci above, it is possible, with a high degree of certainty, to predict an individual's predisposition to QT prolongation.

## COc1cc(C(C)=O)ccc1OCCCN1CCC(c2noc3cc(F)ccc23)CC1 [iloperidone, 1-[4-[3-[4-(6-fluoro-1,2-benzisoxazol-3-yl)-1-piperidinyl]propoxy]-3-methoxyphenl]ethanone]
Change threshold QT > 5 msec
  Odds Ratio: 4.21
  High QT +test (number of individuals): 39
  Low QT +test (number of individuals): seven and 7
  High QT −test (number of individuals): 78
  Low QT −test (number of individuals): 59
Change threshold QT > 15 msec
  Odds Ratio: 3.61
  High QT +test (number of individuals): 29
  Low QT +test (number of individuals): 17
  High QT −test (number of individuals): 44
  Low QT −test (number of individuals): 93
Change threshold QT > 30 msec
  Odds Ratio: 3.84
  High QT +test (number of individuals): 14
  Low QT +test (number of individuals): 32
  High QT −test (number of individuals): 14
  Low QT −test (number of individuals): 123
